{
  "source": "patent US20250032581A1",
  "about": "“COMPOSITIONS AND ARTICLES COMPRISING AN ADNF POLYPEPTIDE” (RAMOT AT TEL-AVIV UNIVERSITY LTD., priority 2021, published 2025)",
  "key": {"Tyr mice [1]": {"tested_on": "Tyr mice", "assay": "Ultrasonic vocalizations (USV) and syntax analysis of P8 pups (DeepSqueak)", "type": "in vivo, mouse", "description": "The Intensity parameter is used to assess the effects of neuropathic pain, including mechanical allodynia. Max Contact Mean Intensity is the mean Intensity of a paw at Max Contact. Print length is the length (horizontal direction) of the complete print. The complete print is the sum of all contacts with the glass plate, as if the animal's paw would have been inked. Print width is the width (vertical direction) of the complete paw. Print area is the surface area of the complete print. Max Intensity is the maximum Intensity of the complete paw. Mean intensity is the mean Intensity of the complete paw. • USV: On P8, each pup was separated from the dam and placed in an empty cage for 6 minutes, in a quiet room and was recorded using the M500-384 USB Ultrasound Microphone (Petterson, Sweden). Pups were distinguished from one another using the tattoos listed above. After 6 minutes pups were reunited with its dam. Data were analyzed using DeepSqueak. Data were loaded onto DeepSqueak, frequencies between 40-70 kHz were analyzed using the mouse call network V2. Calls were denoised using post hoc denoising network. For syntax analysis, Syntax was classified using Wright K means network. Syntax transition probability charts were generated using DeepSqueak and Matlab. Further USV experiments were performed on P8 pups as previously described (12) with slight modifications."}, "Tyr mice [2]": {"tested_on": "Tyr mice", "assay": "CatWalk gait analysis", "type": "in vivo, mouse", "method": "Animals—Animals were housed under a 12-hour light/dark cycle, with food and water ad-libitum. Mouse pups were subcutaneously administrated with NAP [having an amino acid sequence NAPVSIPQ (SEQ ID NO: 2), 25 μg NAP/1 ml saline] as described (8, 12). At 21 days of age mice were administered daily intranasal NAP in vehicle solution (“DD”—7.5 mg/ml of NaCl, 1.7 mg/ml of citric acid, 3 mg/ml of disodium phosphate dihydrate, and 0.2 mg/ml of 50% benzalkonium chloride solution) (0.5 μg NAP/5p1 DD) (8, 9, 12, and U.S. Pat. No. 10,912,819 to Gozes). These mice continued to behavioral analysis as described hereinbelow. The noninvasive intranasal route was chosen as these experiments required daily handling and administration. Age (weeks) of mice during behavioral experiments (mean±SEM) was as follows: Catwalk—9.23±0.15, grooming—10±0.15, social approach—10.5±0.12, odor-discrimination—12.12±0.13, hanging-wire—13±0.14, hotplate—13.18±0.13. Group size was determined following previous experiments (12). Pups were randomly allocated to either the NAP or DD group according to sex and genotype. All procedures involving animals were conducted under the supervision and approval of the institutional animal care and use committee of Tel Aviv University and the Israeli Ministry of Health.\nCatwalk—Was performed as previously described (12).\nBriefly, for ear twitch reflex, a cotton tip was gently brushed against the tip of the ear three times, between postnatal days 7-15 or until the pup responded correctly for two consecutive days. For air righting reflex, the pup was held up-side down and released ˜10.5 cm above the cage, containing 5 cm of shavings. The test was performed between postnatal days 8-21 or until the pup landed on the shavings with all four paws, for two consecutive days. For surface righting reflex, pups were placed on their backs on a level surface, the test was performed between postnatal days 1-13 until the pups was able to right itself with all four paws on the surface in under a second for two consecutive days. For eye opening, mice were observed daily until both eyes were open (eyelids separated completely). For auditory startle, the pup was placed on a level surface and the experimenter clapped loudly twice until a visible startle response was evident for 2 consecutive days. The test was performed between days 7-18. For cliff aversion, pups were placed on the edge of a small box (approx. 4 cm in height) with both paws protruding over the edge of the box. Pups were allowed 30 sec to avoid the cliff and move themselves backwards. Test was performed between day 1-14 until the pup avoided the cliff in under 30 sec for two consecutive days^9. For the rooting reflex, a cotton tip was gently brushed against the sides of the pup's mouth until the pup moved its head to the direction of the stroke. Both sides were tested twice. […] All tests were conducted between 10 AM-4 PM. For the first 5 postnatal days, each pup was put under a single 60-watt bulb during testing to assure the pups' warmth. • Novel object recognition: Briefly, the open field test was used for the first day of habituation since both tests are conducted in the same arena. The following day animals underwent another habituation to the arena (5 mins). As described, the test included two consecutive days of habituation and the experimental days which consisted of the three phases. […]"}, "Tyr mice [3]": {"tested_on": "Tyr mice", "assay": "RNA seq of mouse spleens", "type": "in vivo", "method": "RNA seq—Total RNA was extracted from 14-week-old mouse spleens and sequenced using standard methods on NextSeq500 system (Illumina) as detailed. Data were analyzed as previously described (9)."}, "Tyr-GFP mouse model": {"tested_on": "Tyr-GFP mouse model", "assay": "Dendritic spine quantitation in Tyr-GFP mice", "type": "in vivo", "method": "Spine quantitation—For determination of dendritic spine morphology, the Tyr-GFP mouse model was used and generated as described(12). 1.5-2-month-old Tyr-GFP-mice were treated for 9 consecutive days with either intraperitoneal NAP injection (0.4 μg/0.1 ml saline) or with 0.1 ml saline. On day 9, mice were perfused, and brains were subjected to immunohistochemistry and imaging (12)."}},
  "data": [
    {"smiles": "CC[C@H](C)[C@H](NC(=O)[C@H](CO)NC(=O)[C@@H](NC(=O)[C@@H]1CCCN1C(=O)[C@H](C)NC(=O)[C@@H](N)CC(N)=O)C(C)C)C(=O)N1CCC[C@H]1C(=O)N[C@@H](CCC(N)=O)C(=O)O", "note": "[NAP, NAPVSIPQ]", "values": [
      {"measurement": "total USVs", "setting": "Tyr mice [1]; Tyr female and male P8 pups", "result": "no NAP effects"},
      {"measurement": "syntax", "setting": "Tyr mice [1]; WT pups, data not shown", "result": "minor varied impact on WT pups"},
      {"measurement": "syntax transition probabilities, Xi square analysis Tyr vs. Tyr NAP", "setting": "Tyr mice [1]; females, p<0.001", "result": "significant improvement with NAP treatment"},
      {"measurement": "syntax transition probabilities, Xi square analysis Tyr vs. Tyr NAP", "setting": "Tyr mice [1]; males, p=0.027", "result": "same significant changes"},
      {"measurement": "gait", "setting": "Tyr mice [2]; WT mice, data not shown", "result": "No major NAP effect was observed in WT mice"},
      {"measurement": "gait: intensity parameters", "setting": "Tyr mice [2]; female Tyr mice", "result": "significant NAP correction"},
      {"measurement": "gait: swing speed and swing duration", "setting": "Tyr mice [2]; female Tyr mice", "result": "ameliorated by NAP"},
      {"measurement": "gait: front base of support", "setting": "Tyr mice [2]; male Tyr mice", "result": "NAP correcting this phenotype in males"},
      {"measurement": "gait: print length and area", "setting": "Tyr mice [2]; male Tyr mice, daily intranasal NAP", "result": "significant NAP recovery"},
      {"measurement": "spleen gene expression converging on AKT1, nervous and reproductive systems development", "setting": "Tyr mice [3]", "result": "corrected by NAP"},
      {"measurement": "spine density, motor cortex", "setting": "Tyr-GFP mouse model; WT females, data not shown", "result": "no treatment effect was found on WT females"},
      {"measurement": "PSD95 volume in the hippocampus", "setting": "Tyr-GFP mouse model; female Tyr mice", "result": "complete resolution upon NAP treatment"},
      {"measurement": "mushroom spine density, motor cortex", "setting": "Tyr-GFP mouse model; female Tyr mice", "result": "NAP significantly affecting the larger, functionally stronger, mushroom shaped spines"},
      {"measurement": "increase in spine density, motor cortex L5 layer", "setting": "Tyr-GFP mouse model; female Tyr mice, i.p. NAP, 9 days", "result": "~17", "unit": "%"}
    ]}
  ]
}
